{"source": "patent US11534412B2", "about": "“Application of totarol and pharmaceutical composition containing totarol” (Emergopharm SP. Z O.O. SP.K., priority 2017, dated 2022)", "key": {"[1]": {"tested_on": "human vaginal epithelial cells of the A-431 cell line", "type": "cell-based", "protocol": "Test of totarol impact on the human vaginal epithelial cells of the A-431 cell line (ATCC® The study was carried out using the following test: Annexin-V-Fluos (Roche, Mannheim, Germany), during incubation for 2, 8 and 24 hours, under in vitro conditions, according to the instructions of the test's manufacturer. The totarol sample was prepared by dissolution of 3 mg of totarol in 3 ml of 100% DMI.\nThe cultivation time for the A-431 cell line was 20 days. The culture was carried out at a temperature of 37° C. in an atmosphere containing 10% CO2, on a DMEM culture medium (Institute of Immunology and Experimental Therapy PAS [IITD PAN], Wroclaw), with an addition of 10% of foetal bovine serum (FBS, Sigma-Aldrich). The culture fluid were being replaced regularly every 48 hours. After achieving a decantable growth or the so-called “monolayer”, the cells were passaged using (for approx. 10 min) 0.25% trypsin (Sigma-Aldrich). Then, the obtained tissue line was passed to 24-well plates (TPP), adjusting their densities to the value of 5×10^5 per well. The tissue culture of the studied lines was carried out for 3 next days on the surface of sterile microscope slides placed on the bottom of a 24-well plate, until a decantable growth was obtained on the surface of the microscope slides. After obtaining the so-called “monolayer”, the cells were washed with PBS without Ca^2+ and Mg^2+ ions (IITD PAN, Wroclaw), and poured with 700 µl of fresh DMEM medium with 10% FBS, together with 300 μl of properly prepared totarol. • Negative control: 1000 μl of fresh DMEM medium with 10% FBS. • Solvent control: 700 μl of fresh DMEM medium with 10% FBS+300 μl of DMI solvent. • Necrosis positive control: 900 μl of fresh DMEM medium with 10% FBS+100 μl H2O2 (30%). The proper examination using the Annexin-V-Fluos test causes green staining of apoptotic cells. […] This dye has an ability to penetrate the cell's interior freely only through a damaged cellular membrane, staining the interior red. In the case of a lack of damages of the cellular membrane, propidium iodide remains on its surface, forming a characteristic red “halo” around the cell. After a corresponding study time, i.e. 2, 8, and 24 hours, the culture fluid was removed, the content was washed with PBS (pre-heated to a temperature of 37° C.) twice. Then, 100 μl of the fluorescent stains mixture including in the Annexin-V-Fluos (Roche) kit were applied on the surface of each microscope slide (placed in a culture well) and additionally, Hoechst stain was used (cellular DNA staining). The staining procedure was carried out according to the manufacturer's recommendations. The culture together with the stains applied onto it were incubated at room temperature for 20 min. The intensity of light emitted by the cells stained with the individual stains was observed using a fluorescent microscope at the wavelength of 494-520 nm, using 400× magnification. The cells were counted in five visual fields, and the results were averaged. The reliability of the tests carried out is confirmed by hydrogen peroxide used as a positive control, causing a distinct necrosis process already after 2 hours of incubation. Data analyses were carried out on the basis of the average number of cells from five visual fields in the individual times (2, 8, and 24 h). The results are presented in Table 6 and in the form of photographic documentation—FIGS. 1, 2, 3, 4."}, "Gardnerella vaginalis": {"tested_on": "Gardnerella vaginalis", "conditions": "cited from earlier work"}}, "data": [{"smiles": "OO", "note": "[Necrosis positive control, reference compound]", "values": [{"measurement": "Alive cells", "setting": "[1]", "result": 0}, {"measurement": "Apopt. cells", "setting": "[1]", "result": 0}, {"measurement": "Necrot. Cells", "setting": "[1]", "result": 100}, {"measurement": "Necrot. cells", "setting": "[1]", "result": 100}, {"measurement": "apoptosis and necrosis in epithelial cells, photographic documentation", "setting": "[1]", "result": "Necrotic cells"}]}, {"smiles": "Cc1ncc([N+](=O)[O-])n1CCO", "note": "[metronidazole]", "values": [{"measurement": "metronidazole-resistant strain percentage", "setting": "Gardnerella vaginalis; Goldstein et al., 1993", "result": 20, "unit": "%"}, {"measurement": "percentage of resistant strains", "setting": "Gardnerella vaginalis; Goldstein et al., 2002", "result": 29, "unit": "%"}, {"measurement": "studied strains characterised by resistance to metronidazole", "setting": "Gardnerella vaginalis; Poland, 67 strains isolated from 604 females (46 out of 67)", "result": 68.7, "unit": "%"}, {"measurement": "resistance of Gardnerella vaginalis strains to metronidazole", "setting": "Gardnerella vaginalis; studies published in 2007", "result": 70, "unit": "%"}]}]}
